From patent US20250084101A1, “COMPOUND FOR INHIBITING AND DEGRADING IRAK4, AND PHARMACEUTICAL COMPOSITION AND PHARMACEUTICAL APPLICATION THEREOF” (XIZANG HAISCO PHARMACEUTICAL CO., LTD., priority 2022, published 2025) come the findings set out here.

The structures appear in SMILES notation. Counter-ions that a name gives are not always drawn. Like-named read-outs stand apart in the source and are kept apart here.

The target in one data set is T1, IRAK4 protein (Homo sapiens, UniProt Q9NWZ3).
T1 construct: endogenous in cells; host or cells: human peripheral blood mononuclear cells (hPBMC) from healthy volunteers
T1 sequence (Q9NWZ3 1-460): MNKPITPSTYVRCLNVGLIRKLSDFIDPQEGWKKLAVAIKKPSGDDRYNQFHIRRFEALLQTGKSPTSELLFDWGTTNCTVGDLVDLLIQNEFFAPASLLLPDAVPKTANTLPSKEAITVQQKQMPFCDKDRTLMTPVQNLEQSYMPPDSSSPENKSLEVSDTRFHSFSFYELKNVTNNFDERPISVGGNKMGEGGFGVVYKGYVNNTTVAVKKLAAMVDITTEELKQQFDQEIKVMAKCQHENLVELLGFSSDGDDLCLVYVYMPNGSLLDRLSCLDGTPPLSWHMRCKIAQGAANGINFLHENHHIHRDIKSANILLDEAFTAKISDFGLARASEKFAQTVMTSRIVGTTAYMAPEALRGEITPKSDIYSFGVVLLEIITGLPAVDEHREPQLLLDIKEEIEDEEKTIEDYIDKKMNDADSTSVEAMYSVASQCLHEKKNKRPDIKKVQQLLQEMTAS
The data set can be described thus: IRAK4 degradation activity in hPBMC cells (24 hours). Format: cell-based. The settings on record: for Remaining IRAK4 protein IRAK4%: 100 nM, relative to vehicle control. As for the experimental part:
hPBMC cells are human peripheral blood mononuclear cells. Peripheral venous blood was taken from healthy volunteers, and hPBMCs were isolated using Ficoll density gradient centrifugation (Ficoll-Paque™ PLUS 1.077, GE, Cat. 17-1140-02). Culture conditions: RPMI-1640+10% FBS+1% penicillin-streptomycin solution. The cells were cultured in an incubator at 37° C. and 5% CO2. The cells were plated in a 24-well plate at 1×10^6 cells/well. After plating, compounds at different concentrations were added, and the cells were cultured in an incubator at 37° C. and 5% CO2 for 24 hours. After the culture was completed, the cells were collected, and RIPA lysis buffer (beyotime, Cat. P0013B) was added. The cells were lysed on ice for 20 minutes, and then centrifuged at 12000 rpm at 4° C. for 10 minutes. The protein sample of the supernatant was collected, the protein was quantified using a BCA kit (Beyotime, Cat. P0009), and then the protein was diluted to 1 mg/mL. The expression of IRAK4 (CST, Cat. 4363S) and the internal reference cofilin (CST, Cat. 5175S) were detected using a fully automated western blot quantitative analyzer (Proteinsimple). The expression level of IRAK4 relative to the internal reference was calculated using compass software. The remaining IRAK4 protein IRAK4% relative to the vehicle control group at different doses was calculated using formula (1), and the IRAK4 protein degradation relative to the vehicle control group at different doses was calculated using formula (2), where IRAK4administration was the expression level of IRAK4 in the administration groups at different doses, and IRAK4vehicle was the expression level of IRAK4 in the vehicle control group. An IRAK4 degradation-drug concentration curve was fit using Graphpad Prism 8 software, and the DC50 was calculated.

Data set [1] concerns the target T2, hERG potassium ion channel (Homo sapiens, UniProt Q12809).
T2 construct: expressed in transfected cells; host or cells: CHO (Chinese hamster ovary) cells stably expressing hERG
The data set can be described thus: Effect on hERG potassium ion channel (manual patch-clamp, CHO cells). Format: cell-based. The settings on record: CHO cells stably expressing hERG, whole cell patch-clamp. An excerpt: Experimental platform: electrophysiological manual patch-clamp system
Cell line: Chinese hamster ovary (CHO) cell line stably expressing hERG potassium ion channel
Experimental method: In CHO (Chinese Hamster Ovary) cells stably expressing hERG potassium channel, whole cell patch-clamp technique was used to record hERG potassium channel current at room temperature. The glass microelectrode was made of a glass electrode blank (BF150-86-10, Sutter) by a puller. The tip resistance after filling the liquid in the electrode was about 2-5 MQ. The glass microelectrode can be connected to the patch-clamp amplifier by inserting the glass microelectrode into an amplifier probe. The clamping voltage and data recording were controlled and recorded by the pClamp 10 software through a computer. The sampling frequency was 10 kHz, and the filtering frequency was 2 kHz. After the whole cell records were obtained, the cells were clamped at −80 mV, and the step voltage that induced the hERG potassium current (lhERG) was depolarized from −80 mV to +20 mV for 2 s, then repolarized to −50 mV, and returned to −80 mV after 1 s. This voltage stimulation was given every 10 s, and the administration process was started after the hERG potassium current was confirmed to be stable (at least 1 minute). The compound was administered for at least 1 minute at each test concentration, and at least 2 cells (n≥2) were tested at each concentration.
Data processing: Data analysis processing was carried out by using pClamp 10, GraphPad Prism 5 and Excel software. The inhibition degree of hERG potassium current (peak value of hERG tail current induced at −50 mV) at different compound concentrations was calculated by the following formula:
[formula] • where Inhibition % represents the percentage of inhibition of hERG potassium current by the compound, and l and lo represent the amplitude of hERG potassium current after and before the administration, respectively.
Compound IC50 was calculated using GraphPad Prism 5 software by fitting according to the following equation:
[formula] • where X represents the Log value of the tested concentration of the test sample, Y represents the inhibition percentage at the corresponding concentration, and Bottom and Top represent the minimum and maximum inhibition percentage, respectively.

A short description of data set [2]: Pharmacokinetic test in mice. The settings on record: male, ICR, mouse, plasma, po, 10 mg/kg, i.g. 10 mg/kg, read-out: AUC0-t. Format: in vivo, ICR mice. The protocol: Experimental animals: Male ICR mice, about 25 g, 6 mice/compound, purchased from Chengdu Ddossy Experimental Animals Co., Ltd.
Test design: On the day of the experiment, 6 ICR mice were randomly grouped according to their body weights. The animals were fasted with water available for 12 to 14 h one day before the administration, and were fed 4 h after the administration.
• Vehicle for intravenous administration: 5% DMA+5% Solutol+90% Saline; • Vehicle for intragastric administration: 5% DMSO+30% PEG400+65% (20% SBE-CD); (DMSO: dimethyl sulfoxide; DMA: dimethylacetamide; Solutol: polyethylene glycol-15-hydroxystearate; PEG400: polyethylene glycol 400; SBE-β-CD: sulfobutyl-β-cyclodextrin; Saline: physiological saline)
Before and after the administration, 0.15 mL of blood was taken from the orbit of the animals under isoflurane anesthesia and placed in an EDTAK2 centrifuge tube. The blood was centrifuged at 5000 rpm and 4° C. for 10 min to collect plasma. The blood collection time points for the intravenous administration group and intragastric administration group were 0 min, 5 min, 15 min, 30 min, 1 h, 2 h, 4 h, 7 h and 24 h. Before analysis and detection, all samples were stored at −60° C. The samples were analyzed quantitatively by LC-MS/MS.

[3] abbreviates: read-out: IC50 for inhibitory effect on hERG potassium channel current.

T2 sequence (Q12809 whole entry): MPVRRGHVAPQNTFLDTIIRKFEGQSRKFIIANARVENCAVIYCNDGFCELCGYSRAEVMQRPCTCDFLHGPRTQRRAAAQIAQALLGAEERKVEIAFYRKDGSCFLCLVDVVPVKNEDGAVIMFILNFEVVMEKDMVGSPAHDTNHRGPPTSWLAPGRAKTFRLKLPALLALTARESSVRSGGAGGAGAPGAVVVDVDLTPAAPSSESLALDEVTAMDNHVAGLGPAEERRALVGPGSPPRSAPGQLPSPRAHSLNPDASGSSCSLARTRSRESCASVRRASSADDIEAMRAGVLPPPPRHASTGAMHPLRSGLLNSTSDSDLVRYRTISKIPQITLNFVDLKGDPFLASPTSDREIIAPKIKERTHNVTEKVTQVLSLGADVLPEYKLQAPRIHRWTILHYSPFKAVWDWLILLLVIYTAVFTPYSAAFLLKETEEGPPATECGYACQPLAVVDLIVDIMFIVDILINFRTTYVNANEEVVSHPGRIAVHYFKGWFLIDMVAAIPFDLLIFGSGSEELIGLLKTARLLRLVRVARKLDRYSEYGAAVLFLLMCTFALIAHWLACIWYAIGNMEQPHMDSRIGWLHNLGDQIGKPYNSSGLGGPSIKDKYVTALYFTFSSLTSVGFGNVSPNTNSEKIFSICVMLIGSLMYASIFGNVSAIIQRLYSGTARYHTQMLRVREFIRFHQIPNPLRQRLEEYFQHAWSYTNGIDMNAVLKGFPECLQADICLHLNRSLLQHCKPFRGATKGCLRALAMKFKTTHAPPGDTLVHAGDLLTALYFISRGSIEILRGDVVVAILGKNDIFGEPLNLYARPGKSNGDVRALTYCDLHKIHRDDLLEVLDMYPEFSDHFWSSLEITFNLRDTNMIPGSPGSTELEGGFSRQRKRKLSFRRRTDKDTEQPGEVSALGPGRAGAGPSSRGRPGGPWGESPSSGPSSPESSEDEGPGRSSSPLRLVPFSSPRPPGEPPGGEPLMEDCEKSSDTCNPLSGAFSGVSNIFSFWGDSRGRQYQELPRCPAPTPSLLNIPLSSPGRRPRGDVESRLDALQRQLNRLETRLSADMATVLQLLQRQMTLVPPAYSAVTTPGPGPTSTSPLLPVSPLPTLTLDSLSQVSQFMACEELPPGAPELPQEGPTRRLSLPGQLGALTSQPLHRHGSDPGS

For the compound `O=C1CCC(c2nn(C3CC3)c3c(C#CCOC4CCN(C[C@H]5CC[C@H](n6cc(NC(=O)c7cnn8ccc(N9C[C@H]%10C[C@@H]9CO%10)nc78)c(C(F)F)n6)CC5)CC4)cccc23)C(=O)N1` (stereo partly shown) [Compound 16], on IRAK4 protein, the “Remaining IRAK4 protein IRAK4%” value is given as “A (A ≤ 10%)”.

As for `[2H]C([2H])([2H])n1nc(C2CCC(=O)NC2=O)c2cccc(C#CCOC3CCN(C[C@H]4CC[C@H](n5cc(NC(=O)c6cnn7ccc(N8C[C@H]9C[C@@H]8CO9)nc67)c(C(F)F)n5)CC4)CC3)c21` (relative stereo) [Compound 7, Trans-5-((1R,4R)-2-oxa-5-azabicyclo[2.2.1]heptan-5-yl)-N-(3-(difluoromethyl)-1-(4-((4-((3-(3-(2,6-dioxopiperidin-3-yl)-1-(methyl-d3)-1H-indazol-7-yl)prop-2-yn-1-yl)oxy)piperidin-1-yl)methyl)cyclohexyl)-1H-pyrazol-4-yl) pyrazolo[1,5-a]pyrimidine-3-carboxamide], the “Remaining IRAK4 protein IRAK4%” value at IRAK4 protein is listed as “A (A ≤ 10%)”.

Regarding `Cn1nc(C2CCC(=O)NC2=O)c2cccc(C#CCO[C@H]3CCN(C[C@H]4CC[C@H](n5cc(NC(=O)c6cnn7ccc(N8CCO[C@H](CO)C8)nc67)c(C(F)F)n5)CC4)C[C@H]3F)c21` (single isomer, unassigned) [Chiral isomer 1 of compound 25], the DC50 at IRAK4 protein was < 0.02 µM. The IC50 in data set [1] (setting [3]) is > 40 µM.

`CC(C)n1nc(C2CCC(=O)NC2=O)c2cccc(C#CCOC3CCN(C[C@H]4CC[C@H](n5cc(NC(=O)c6cnn7ccc(N8C[C@H]9C[C@@H]8CO9)nc67)c(C(F)F)n5)CC4)CC3)c21` (single isomer, unassigned) [Chiral isomer 1 of compound 8]: the “Remaining IRAK4 protein IRAK4%” value on IRAK4 protein is reported as “B (10% < B ≤ 50%)”.

In the case of `Cn1nc(C2CCC(=O)NC2=O)c2cccc(C#CCO[C@@H]3CCN(C[C@H]4CC[C@H](n5cc(NC(=O)c6cnn7ccc(N8CCO[C@@H](CO)C8)nc67)c(C(F)F)n5)CC4)C[C@@H]3F)c21` (single isomer, unassigned) [Chiral isomer 2 of compound 19], the 50% degradation concentration (DC50) at IRAK4 protein was < 0.02 µM.

For `CN(C[C@H]1CC[C@H](n2cc(NC(=O)c3cnn4ccc(N5C[C@H]6C[C@@H]5CO6)nc34)c(C(F)F)n2)CC1)C1CCN(Cc2cccc3c(C4CCC(=O)NC4=O)nn(C)c23)CC1` (stereo partly shown) [Compound 1], the “Remaining IRAK4 protein IRAK4%” value on IRAK4 protein is listed as “B (10% < B ≤ 50%)”.

On to `Cn1nc(C2CCC(=O)NC2=O)c2cccc(C#CCO[C@H]3CCN(C[C@H]4CC[C@H](n5cc(NC(=O)c6cnn7ccc(N8CCO[C@@H](CO)C8)nc67)c(C(F)F)n5)CC4)C[C@H]3F)c21` (single isomer, unassigned) [Chiral isomer 1 of compound 24], for which the DC50 at IRAK4 protein was < 0.02 µM. In data set [1] (setting [3]), the IC50 is > 40 µM.

For `Cn1nc(C2CCC(=O)NC2=O)c2cccc(C#CCO[C@H]3CCN(C[C@H]4CC[C@H](n5cc(NC(=O)c6cnn7ccc(N8C[C@H]9C[C@@H]8CO9)nc67)c(C(F)F)n5)CC4)C[C@H]3F)c21` (stereo partly shown) [Compound 11], the “Remaining IRAK4 protein IRAK4%” value on IRAK4 protein was “A (A ≤ 10%)”. The AUC(0-t) in data set [2] came out at 8750 ± 4650 ng·h/mL. Also, the IC50 in data set [1] (setting [3]) is > 30 µM.

Turning to `CCn1nc(C2CCC(=O)NC2=O)c2cccc(C#CCOC3CCN(C[C@H]4CC[C@H](n5cc(NC(=O)c6cnn7ccc(N8C[C@H]9C[C@@H]8CO9)nc67)c(C(F)F)n5)CC4)CC3)c21` (stereo partly shown) [Compound 6], the “Remaining IRAK4 protein IRAK4%” value on IRAK4 protein was “A (A ≤ 10%)”.

On to `Cn1nc(C2CCC(=O)NC2=O)c2cccc(C#CCO[C@H]3CCN(C[C@H]4CC[C@H](n5cc(NC(=O)c6cnn7ccc(N8CCO[C@H](CO)C8)nc67)c(C(F)F)n5)CC4)C[C@H]3F)c21` (single isomer, unassigned) [Chiral isomer 2 of compound 25], for which, at IRAK4 protein, the DC50 was < 0.02 µM. Besides, the IC50 in data set [1] (setting [3]) was > 40 µM.

On to `COC[C@H]1CN(c2ccn3ncc(C(=O)Nc4cn([C@H]5CC[C@H](CN6CC[C@H](OCC#Cc7cccc8c(C9CCC(=O)NC9=O)nn(C)c78)[C@H](F)C6)CC5)nc4C(F)F)c3n2)CCO1` (single isomer, unassigned) [Chiral isomer 2 of compound 23], for which the DC50 on IRAK4 protein is < 0.02 µM. Moreover, in data set [1] (setting [3]), the IC50 was > 40 µM.

Regarding `Cn1nc(C2CCC(=O)NC2=O)c2cccc(C#CCO[C@@H]3CCN(C[C@H]4CC[C@H](n5cc(NC(=O)c6cnn7ccc(N8CCO[C@@H](CO)C8)nc67)c(C(F)F)n5)CC4)C[C@@H]3F)c21` (single isomer, unassigned) [Trifluoroacetate salt of chiral isomer 2 of compound 19], in data set [2], the AUC(0-t) came to 8300 ± 2850 ng·h/mL. In addition, the IC50 in data set [1] (setting [3]) was > 40 µM.

Consider `Cn1nc(C2CCC(=O)NC2=O)c2cccc(C#CCO[C@H]3CCN(C[C@H]4CC[C@H](n5cc(NC(=O)c6cnn7ccc(N8C[C@H]9C[C@@H]8CO9)nc67)c(C(F)F)n5)CC4)C[C@@H]3F)c21` (stereo partly shown) [Compound 12], for which the “Remaining IRAK4 protein IRAK4%” value on IRAK4 protein is “B (10% < B ≤ 50%)”. The IC50 in data set [1] (setting [3]) was > 30 µM.

In the case of `Cn1nc(C2CCC(=O)NC2=O)c2cccc(C#CCOC3CCN(C[C@H]4CC[C@H](n5cc(NC(=O)c6cnn7cc(F)c(N8C[C@H]9C[C@@H]8CO9)nc67)c(C(F)F)n5)CC4)CC3)c21` (stereo partly shown) [Trifluoroacetate salt of compound 15], the “Remaining IRAK4 protein IRAK4%” value on IRAK4 protein is “B (10% < B ≤ 50%)”.

Regarding `Cn1nc(C2CCC(=O)NC2=O)c2cccc(C#CCO[C@@H]3CCN(C[C@H]4CC[C@H](n5cc(NC(=O)c6cnn7ccc(N8C[C@H]9C[C@@H]8CO9)nc67)c(C(F)F)n5)CC4)C[C@H]3F)c21` (stereo partly shown) [Compound 13], the “Remaining IRAK4 protein IRAK4%” value on IRAK4 protein is listed as “B (10% < B ≤ 50%)”.

For the compound `Cn1c(=O)n(C2CCC(=O)NC2=O)c2cccc(C#CCOC3CCN(C[C@H]4CC[C@H](n5cc(NC(=O)c6cnn7ccc(N8C[C@H]9C[C@@H]8CO9)nc67)c(C(F)F)n5)CC4)CC3)c21` (stereo partly shown) [Control compound 1, reference compound], the AUC(0-t) in data set [2] is 2320 ± 146 ng·h/mL. In data set [1] (IC50 for inhibitory effect on hERG potassium channel current), this compound showed an IC50 of 0.642 µM.
